Measurements reported in ChEMBL document CHEMBL5512605, “Targeted regulated cell death with small molecule compounds in colorectal cancer: Current perspectives of targeted therapy and molecular mechanisms” (Eur J Med Chem, 2024).

Assays:
SW480 [1] = experiment: Antiproliferative activity against human SW480 cells measured upto 72 hrs by CCK-8 method; assay type: functional
LoVo [2] = experiment: Antiproliferative activity against human LoVo cells measured upto 72 hrs by CCK-8 method; assay type: functional
HCT-116 [3] = experiment: Antiproliferative activity against human HCT-116 cells measured upto 72 hrs by CCK-8 method; assay type: functional
HCT-116 [4] = experiment: Cytotoxicity against human HCT-116 cells assessed as inhibition of cell growth incubated for 24 hrs by MTT assay; assay type: functional
HCT-116 [5] = experiment: Antiproliferative activity against human HCT-116 cells expressing wild type p53 measured after 48 hrs by MTT assay; assay type: functional, cell-based; conditions: HCT-116, 48 h
HCT-116 [6] = experiment: Antiproliferative activity against human HCT-116 cells; assay type: functional, cell-based
SW480 [7] = experiment: Antiproliferative activity against human SW480 cells assessed as inhibition of cell growth measured after 24 hrs by CellTiter 96 Aqueous One Solution Cell Proliferation Assay; assay type: functional, cell-based; conditions: SW480, 24 h
HCT-116 [8] = experiment: Antiproliferative activity against human HCT-116 cells assessed as inhibition of cell growth measured after 24 hrs by CellTiter 96 Aqueous One Solution Cell Proliferation Assay; assay type: functional, cell-based; conditions: HCT-116, 24 h
SW-620 [9] = experiment: Antiproliferative activity against human SW620 cells measured upto 60 hrs by MTS assay; assay type: functional
DLD-1 = experiment: Antiproliferative activity against human DLD-1 cells assessed as inhibition of cell growth measured after 48 hrs by CCK-8 method; assay type: functional, cell-based; conditions: DLD-1, 48 h
SW-620 [10] = experiment: Antiproliferative activity against human SW620 cells assessed as inhibition of cell growth measured after 48 hrs by CCK-8 method; assay type: functional, cell-based; conditions: SW-620, 48 h
HCT-116 [11] = experiment: Antiproliferative activity against human HCT-116 cells assessed as inhibition of cell growth measured after 48 hrs by CCK-8 method; assay type: functional, cell-based; conditions: HCT-116, 48 h
HT-29 [12] = experiment: Antiproliferative activity against human HT-29 cells assessed as inhibition of cell growth measured after 48 hrs by CCK-8 method; assay type: functional, cell-based; conditions: HT-29, 48 h
SW480 [13] = experiment: Antiproliferative activity against human SW480 cells assessed as inhibition of cell growth measured after 48 hrs by CCK-8 method; assay type: functional, cell-based; conditions: SW480, 48 h
SW480 [14] = experiment: Antiproliferative activity against human SW480 cells; assay type: functional, cell-based
HCT-116 [15] = experiment: Antiproliferative activity against human HCT-116 cells assessed as inhibition of cell viability; assay type: functional, cell-based
CT26 = experiment: Antiproliferative activity against mouse CT26 cells assessed as inhibition of cell viability; assay type: functional, cell-based
SW-620 [16] = experiment: Cytotoxicity against human SW620 cells; assay type: functional, cell-based; conditions: Homo sapiens, SW-620
HCT-116 [17] = experiment: Cytotoxicity against human HCT-116 cells; assay type: functional, cell-based; conditions: Homo sapiens, HCT-116
LoVo [18] = experiment: Antiproliferative activity in human LoVo cells incubated for 72 hrs by MTT assay; assay type: functional, cell-based
HCT-116 [19] = experiment: Antiproliferative activity against human HCT-116 cells assessed as inhibition of cell growth; assay type: functional, cell-based
SW-620 [20] = experiment: Antiproliferative activity against human SW620 cells assessed as inhibition of cell growth; assay type: functional, cell-based
HT-29 [21] = experiment: Antiproliferative activity in human HT-29 cells incubated for 48 hrs by MTT assay; assay type: functional, cell-based; conditions: HT-29, 48 h
HT-29 [22] = experiment: Cytotoxicity against human HT-29 cells measured after 24 hrs by MTT assay; assay type: functional, cell-based; conditions: HT-29, 24 h
HCT-116 [23] = experiment: Cytotoxicity against human HCT-116 cells measured after 24 hrs by MTT assay; assay type: functional, cell-based; conditions: HCT-116, 24 h
HCT-116 [24] = experiment: Antiproliferative activity against human HCT-116 cells incubated for 24 hrs by MTT assay; assay type: functional
HT-29 [25] = experiment: Cytotoxicity against human HT-29 cells; assay type: functional, cell-based
KM12 = experiment: Cytotoxicity against human KM12 cells; assay type: functional, cell-based
COLO 205 = experiment: Cytotoxicity against human COLO 205 cells; assay type: functional, cell-based
HT-29 [26] = experiment: Antiproliferative activity against human HT-29 cells incubated for 48 hrs by MTT assay; assay type: functional, cell-based; conditions: HT-29, 48 h
HCT-116 [27] = experiment: Antiproliferative activity against human HCT-116 cells incubated for 48 hrs by MTT assay; assay type: functional, cell-based; conditions: HCT-116, 48 h
HT-29 [28] = experiment: Induction of cell cycle arrest in human HT-29 cells measured after 24 to 48 hrs by PI staining based flow cytometry analysis; assay type: functional

Structure (SMILES): C[C@H]1[C@H](C)CC[C@]2(C(=O)O[C@@H]3O[C@H](CO[C@@H]4O[C@H](CO)[C@@H](O[C@@H]5O[C@@H](C)[C@H](O)[C@@H](O)[C@H]5O)[C@H](O)[C@H]4O)[C@@H](O)[C@H](O)[C@H]3O)CC[C@]3(C)C(=CC[C@@H]4[C@@]5(C)C[C@@H](O)[C@H](O)[C@@](C)(CO)[C@@H]5CC[C@]43C)[C@H]12
- IC (SW480 [1]): 2 µM
- IC (LoVo [2]): 2 µM
- IC (HCT-116 [3]): 2 µM

Structure (SMILES): NCCCNCCCCNCCCN1C(=O)c2ccc3c4c(ccc(c24)C1=O)C(=O)N(CCCNCCCCNCCCN)C3=O
- IC (HCT-116 [4]): 1 µM

Structure (SMILES): Cc1c(CO)c(CO)c2n1[C@H](c1ccccc1)SC2
- IC50 (HCT-116 [5]): 0.97 µM

Structure (SMILES): COc1cc(C[C@@H](CO[C@@H]2O[C@H](CO)[C@@H](O)[C@H](O)[C@H]2O)[C@H](CO[C@@H]2O[C@H](CO)[C@@H](O)[C@H](O)[C@H]2O)Cc2ccc(O)c(OC)c2)ccc1O
- IC50 (HCT-116 [6]; Homo sapiens, HCT-116): 24.5 µM

Structure (SMILES): C[C@@H]1CC[C@]2(C(=O)O)CC[C@]3(C)C(=CC[C@@H]4[C@@]5(C)CC[C@H](O[C@@H]6OC[C@H](O)[C@H](O)[C@H]6O)C(C)(C)[C@@H]5CC[C@]43C)[C@@H]2[C@]1(C)O
- IC50 (SW480 [7]): 11.3 µM
- IC50 (HCT-116 [8]): 10.8 µM

Structure (SMILES): COc1cc2c(=O)oc3c(OC)c(O)cc4c(=O)oc(c1OC)c2c34
- IC (SW-620 [9]): 15 µM

Structure (SMILES): CCc1ccc2c3[nH]c4ccccc4c3cc[n+]2c1
- IC50 (DLD-1): 10.8 µM
- IC50 (SW-620 [10]): 10.5 µM
- IC50 (HCT-116 [11]): 8.15 µM
- IC50 (HT-29 [12]): 9.58 µM
- IC50 (SW480 [13]): 15.3 µM

Structure (SMILES): O=C1C2C3C=CC(C4CC34)C2C(=O)N1c1ccc(Cc2ccncc2)cc1 (stereo not drawn)
- IC (HCT-116 [6]): 10 µM
- IC (SW480 [14]): 10 µM

Structure (SMILES): C/C=C1/CN(C)[C@H]2Cc3c([nH]c4ccccc34)[C@H](c3cc4[nH]c5c(c4cc3OC)CCN3C[C@@H]4C[C@H](CC)[C@H]3[C@@]5(C(=O)OC)C4)C[C@@H]1C2C(=O)OC (stereo partly drawn)
- IC50 (HCT-116 [15]): 4.1 µM
- IC50 (CT26): 1.38 µM

Structure (SMILES): C=CC(=O)Nc1ccccc1Nc1nc(Nc2ccc(CN3CCC(C(=O)NO)CC3)cc2)ncc1Cl
- IC50 (SW-620 [16]): 0.309 µM
- IC50 (HCT-116 [17]): 0.134 µM

Structure (SMILES): O=C1/C(=C/c2ccccc2Br)CSC/C1=C\c1ccccc1Br
- IC50 (LoVo [18]): 1 µM

Structure (SMILES): COC(=O)[C@H](C)NC(=O)N[C@]1(C)CC[C@]2(C)CC[C@]3(C)C4=CC=C5C(=CC(=O)C(O)=C5C)[C@]4(C)CC[C@@]3(C)[C@@H]2C1
- IC50 (HCT-116 [19]): 0.28 µM
- IC50 (SW-620 [20]): 0.28 µM

Structure (SMILES): C=CCCCOc1cc(O)c2c(c1)OC(c1ccc(O)cc1)CC2=O (stereo not drawn)
- IC50 (HT-29 [21]): 23.4 µM

Structure (SMILES): C[C@@H]1CC[C@@]2(OC1)O[C@H]1C[C@H]3[C@]4(C)CC=C5C[C@@H](O[C@@H]6O[C@H](CO)[C@@H](O[C@@H]7O[C@@H](C)[C@H](O[C@@H]8O[C@@H](C)[C@H](O)[C@@H](O)[C@@H]8O)[C@@H](O)[C@H]7O)[C@H](O)[C@H]6O[C@@H]6O[C@@H](C)C(O)[C@@H](O)[C@H]6O)CC[C@]5(C)[C@H]4CC[C@]3(C)[C@H]1[C@@H]2C (stereo partly drawn)
- IC50 (HT-29 [22]): 1.89 µM
- IC50 (HCT-116 [23]): 3.73 µM

Structure (SMILES): COc1ccccc1[C@@H](NS(=O)(=O)c1ccc2[nH]c(=O)ccc2c1)C(=O)N(Cc1ccco1)Cc1cccs1
- IC (HCT-116 [24]): 20 µM

Structure (SMILES): c1ccc(-c2ccc(-c3csc(N/N=C4\CCc5ccccc54)n3)cc2)cc1
- IC50 (HT-29 [25]): 0.44 µM
- IC50 (KM12): 0.41 µM
- IC50 (COLO 205): 0.98 µM

Structure (SMILES): O=c1cc(-c2ccc(Oc3c(-c4ccc(O)cc4)oc4cc(O)cc(O)c4c3=O)cc2)oc2cc(O)cc(O)c12
- IC50 (HT-29 [26]): 18.8 µM
- IC50 (HCT-116 [27]): 32 µM

Structure (SMILES): N#CC1=C(N)Oc2ccc3ccccc3c2C1c1ccc(F)cc1 (stereo not drawn)
- IC50 (HT-29 [28]): 60 µM
